Reference: patent EP4596574A1, “GLP-1/GCG/GIP TRIPLE-RECEPTOR AGONIST AND USE THEREOF” (Sunshine Lake Pharma Co., Ltd., priority 2022, dated 2024)
Marks after values point to notes of the source that are not given here.

Experiments:
GCGR = target: T1, GCGR (Homo sapiens, UniProt P47871); test: In vitro cell activity, cAMP production in HEK293 cells expressing GCGR; format: cell-based
T1 construct: expressed in transfected cells; host or cells: HEK293 (HEK293-GCGR)
Method in brief: (§1)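 Cells were plated at 4×10^5 cells/mL, and detection reagents (cAMP-d2, anti-cAMP cryptate, 1:1) were incubated 1 h at room temperature in the dark or overnight at 4 °C.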

GLP-1R = target: T2, GLP-1R (Homo sapiens, UniProt P43220); test: In vitro cell activity, cAMP production in HEK293 cells expressing GLP-1R; format: cell-based
T2 construct: expressed in transfected cells; host or cells: HEK293 (HEK293-GLP-1R)
T2 sequence (P43220 24-463, species assumed): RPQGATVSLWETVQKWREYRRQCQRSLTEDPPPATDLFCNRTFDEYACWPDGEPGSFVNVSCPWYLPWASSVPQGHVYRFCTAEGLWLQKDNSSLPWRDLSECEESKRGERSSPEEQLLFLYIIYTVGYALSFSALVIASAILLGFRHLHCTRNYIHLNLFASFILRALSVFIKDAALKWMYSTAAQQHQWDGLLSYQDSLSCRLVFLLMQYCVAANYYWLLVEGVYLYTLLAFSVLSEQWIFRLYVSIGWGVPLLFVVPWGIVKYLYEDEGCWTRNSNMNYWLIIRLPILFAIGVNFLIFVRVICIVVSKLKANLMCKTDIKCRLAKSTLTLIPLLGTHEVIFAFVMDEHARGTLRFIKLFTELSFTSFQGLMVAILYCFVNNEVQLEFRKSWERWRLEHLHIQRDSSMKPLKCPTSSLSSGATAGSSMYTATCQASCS
Method in brief: as §1

[1] = Glucose tolerance assessment in normal C57BL/6 mice (Example 4); format: in vivo; conditions: for Blood glucose level (mM) 15 min / Blood glucose level (mM) 30 min / Blood glucose level (mM) 60 min / Blood glucose level (mM) 90 min / Blood glucose level (mM) 0 min / AUC0-90 min: 3 nmol/kg s.c. single dose, 24 h after administration; for Blood glucose level (mM) 15 min: 15 min after 2 g/kg glucose i.p.; for Blood glucose level (mM) 30 min: 30 min after 2 g/kg glucose i.p.; for Blood glucose level (mM) 60 min: 60 min after 2 g/kg glucose i.p.; for Blood glucose level (mM) 90 min: 90 min after 2 g/kg glucose i.p.; for Blood glucose level (mM) 0 min: basal before 2 g/kg glucose i.p.; for AUC0-90 min: blood glucose AUC, 2 g/kg glucose i.p.
Experimental: Twelve hours after the single administration, the animals were fasted for 12 hours and had free access to water. Blood was collected from the tail vein to determine the basal blood glucose level of each group of animals, and then 2 g/kg glucose solution was injected intraperitoneally. Blood glucose was tested at 15, 30, 60, and 90 min after glucose administration. The blood glucose concentration-time curve was drawn according to the blood glucose values measured at different time points, and the AUC0~90min of each dose group was calculated as shown in Table 4 and Figure 1. Table 4: Effects of single administration of HEC-PT74, HEC-PT75, HEC-PT77, HEC-PT78, HEC-PT80, and HEC-PT82 on glucose tolerance in normal C57 mice 24 h after administration

GIPR = target: T3, GIPR (Homo sapiens, UniProt P48546); test: In vitro cell activity, cAMP production in HEK293 cells expressing GIPR; format: cell-based
T3 construct: expressed in transfected cells; host or cells: HEK293 (HEK293-GIPR)
T3 sequence (P48546 22-466): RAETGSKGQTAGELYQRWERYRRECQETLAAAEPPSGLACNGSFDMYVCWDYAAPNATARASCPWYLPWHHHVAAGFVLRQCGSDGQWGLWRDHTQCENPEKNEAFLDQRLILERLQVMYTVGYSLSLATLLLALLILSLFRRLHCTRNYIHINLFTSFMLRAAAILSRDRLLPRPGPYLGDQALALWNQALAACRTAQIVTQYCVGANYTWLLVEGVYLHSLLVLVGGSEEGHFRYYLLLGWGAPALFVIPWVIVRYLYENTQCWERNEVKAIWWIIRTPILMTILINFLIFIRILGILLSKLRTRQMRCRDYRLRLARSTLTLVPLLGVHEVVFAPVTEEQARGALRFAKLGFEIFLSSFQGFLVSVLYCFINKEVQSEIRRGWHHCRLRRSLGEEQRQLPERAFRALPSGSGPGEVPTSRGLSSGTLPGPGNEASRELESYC
Method in brief: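 cAMP accumulation is quantified by homogeneous TR-FRET (cAMP-d2 plus anti-cAMP cryptate) in GIPR-expressing HEK293 cells seeded from a 4×10^5 cells/mL suspension and treated with compound. The signal ratio is plotted against concentration and fitted to a four-parameter curve to give EC50.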

[2] = In vivo efficacy evaluation in db/db mouse model (blood glucose); set-up: species or system db/db mice
Experimental: Blood glucose was tested before each administration.

T1 sequence (P47871 26-477, species assumed): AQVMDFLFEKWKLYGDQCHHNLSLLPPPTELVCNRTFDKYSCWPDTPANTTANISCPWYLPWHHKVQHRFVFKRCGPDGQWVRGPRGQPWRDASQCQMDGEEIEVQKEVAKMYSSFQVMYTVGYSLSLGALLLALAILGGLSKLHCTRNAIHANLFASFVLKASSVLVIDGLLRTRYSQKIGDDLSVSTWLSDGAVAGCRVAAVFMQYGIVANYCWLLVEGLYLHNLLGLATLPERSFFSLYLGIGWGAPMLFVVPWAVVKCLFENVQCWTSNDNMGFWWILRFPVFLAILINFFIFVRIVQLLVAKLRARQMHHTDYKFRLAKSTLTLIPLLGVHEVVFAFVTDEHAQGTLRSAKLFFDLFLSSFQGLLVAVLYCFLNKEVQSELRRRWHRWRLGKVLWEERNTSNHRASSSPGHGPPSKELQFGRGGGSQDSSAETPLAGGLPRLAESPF

CC[C@H](C)[C@H](NC(=O)[C@H](Cc1ccccc1)NC(=O)[C@H](CCC(=O)O)NC(=O)[C@H](CCC(N)=O)NC(=O)[C@H](CCC(N)=O)NC(=O)[C@H](C)NC(=O)[C@H](CCCCNC(=O)COCCOCCNC(=O)CC[C@H](NC(=O)CCCCCCCCCCCCCCCCCCC(=O)O)C(=O)O)NC(=O)[C@H](CCC(=O)O)NC(=O)[C@H](CC(=O)O)NC(=O)[C@H](CC(C)C)NC(=O)[C@H](CC(C)C)NC(=O)[C@@H](NC(=O)[C@H](CO)NC(=O)[C@H](Cc1ccc(O)cc1)NC(=O)[C@H](CC(=O)O)NC(=O)[C@H](CO)NC(=O)[C@@H](NC(=O)[C@](C)(Cc1ccccc1F)NC(=O)[C@@H](NC(=O)CNC(=O)[C@H](CCC(N)=O)NC(=O)C(C)(C)NC(=O)[C@@H](N)Cc1ccc(O)cc1)[C@@H](C)O)[C@@H](C)O)[C@@H](C)CC)C(=O)N[C@@H](CCC(=O)O)C(=O)N[C@@H](Cc1c[nH]c2ccccc12)C(=O)N[C@@H](CC(C)C)C(=O)N[C@@H](CC(C)C)C(=O)N[C@@H](CCC(=O)O)C(=O)NCC(=O)NCC(=O)N1CCC[C@H]1C(=O)N[C@@H](CO)C(=O)N[C@@H](CO)C(=O)NCC(=O)N[C@@H](C)C(=O)N1CCC[C@H]1C(=O)N1CCC[C@H]1C(=O)N1CCC[C@H]1C(=O)N[C@@H](CO)C(=O)O [HEC-PT78]
EC50 (GCGR): 4.5 nM | EC50 (GLP-1R): 0.532 nM | Blood glucose level (mM) 15 min [1]: 15.8 ± 2.6 mM | Blood glucose level (mM) 30 min [1]: 12.0 ± 2.5 mM | Blood glucose level (mM) 60 min [1]: 9.2 ± 1.5 mM | Blood glucose level (mM) 90 min [1]: 7.3 ± 0.7 mM | Blood glucose level (mM) 0 min [1]: 4.6 ± 0.6 mM | AUC0-90 min [1]: 927.1±135.2^a | EC50 (GIPR): 0.215 nM

CC[C@H](C)[C@H](NC(=O)[C@H](Cc1ccccc1)NC(=O)[C@H](CCC(=O)O)NC(=O)[C@H](CCCNC(=N)N)NC(=O)[C@H](CCC(N)=O)NC(=O)[C@H](C)NC(=O)[C@H](CCCCNC(=O)COCCOCCNC(=O)CC[C@H](NC(=O)CCCCCCCCCCCCCCCCC(=O)O)C(=O)O)NC(=O)[C@H](CCC(=O)O)NC(=O)[C@H](CC(=O)O)NC(=O)[C@H](CC(C)C)NC(=O)[C@H](CC(C)C)NC(=O)[C@@H](NC(=O)[C@H](CO)NC(=O)[C@H](Cc1ccc(O)cc1)NC(=O)[C@H](CC(=O)O)NC(=O)[C@H](CO)NC(=O)[C@@H](NC(=O)[C@](C)(Cc1ccccc1F)NC(=O)[C@@H](NC(=O)CNC(=O)[C@H](Cc1c[nH]cn1)NC(=O)C(C)(C)NC(=O)[C@@H](N)Cc1ccc(O)cc1)[C@@H](C)O)[C@@H](C)O)[C@@H](C)CC)C(=O)N[C@@H](CCC(=O)O)C(=O)N[C@@H](Cc1c[nH]c2ccccc12)C(=O)N[C@@H](CC(C)C)C(=O)N[C@@H](CC(C)C)C(=O)N[C@@H](C)C(=O)NCC(=O)NCC(=O)N1CCC[C@H]1C(=O)N[C@@H](CO)C(=O)N[C@@H](CO)C(=O)NCC(=O)N[C@@H](C)C(=O)N1CCC[C@H]1C(=O)N1CCC[C@H]1C(=O)N1CCC[C@H]1C(=O)N[C@@H](CO)C(=O)O [HEC-PT74]
EC50 (GCGR): 0.319 nM | blood glucose after administration ([2]; db/db mice, 10 nmol/kg): significantly reduce blood glucose | Random blood glucose (mM) D0 ([2]; db/db mice, 10 nmol/kg s.c. once every three days, D0 (before first dose)): 25.5 ± 4.7 mM | Random blood glucose (mM) D3 ([2]; db/db mice, 10 nmol/kg s.c. once every three days, D3): 13.5 ± 4.4 mM | Random blood glucose (mM) D4 ([2]; db/db mice, 10 nmol/kg s.c. once every three days, D4): 20.0 ± 2.9 mM | Random blood glucose (mM) D5 ([2]; db/db mice, 10 nmol/kg s.c. once every three days, D5): 22.1 ± 3.9 mM | Random blood glucose (mM) D6 ([2]; db/db mice, 10 nmol/kg s.c. once every three days, D6): 21.1 ± 3.0 mM | Random blood glucose (mM) D7 ([2]; db/db mice, 10 nmol/kg s.c. once every three days, D7): 22.7 ± 2.9 mM | Random blood glucose (mM) D10 ([2]; db/db mice, 10 nmol/kg s.c. once every three days, D10): 12.1 ± 2.1 mM | Random blood glucose (mM) D13 ([2]; db/db mice, 10 nmol/kg s.c. once every three days, D13): 12.5 ± 2.7 mM | Random blood glucose (mM) D16 ([2]; db/db mice, 10 nmol/kg s.c. once every three days, D16): 12.1 ± 2.9 mM | Random blood glucose (mM) D19 ([2]; db/db mice, 10 nmol/kg s.c. once every three days, D19): 16.0 ± 2.3 mM | Random blood glucose (mM) D22 ([2]; db/db mice, 10 nmol/kg s.c. once every three days, D22): 13.9 ± 3.2 mM | Random blood glucose (mM) D25 ([2]; db/db mice, 10 nmol/kg s.c. once every three days, D25): 16.3±4.2^a mM | Random blood glucose (mM) 6 h ([2]; db/db mice, 10 nmol/kg s.c., 6 h): 16.7 ± 5.1 mM | Random blood glucose (mM) 24 h ([2]; db/db mice, 10 nmol/kg s.c., 24 h): 7.3 ± 1.6 mM | Random blood glucose (mM) 48 h ([2]; db/db mice, 10 nmol/kg s.c., 48 h): 9.2 ± 2.9 mM | time at which blood glucose levels reached the lowest level ([2]; db/db mice, 10 nmol/kg, after administration): about 24 hours | blood glucose lowering after long-term administration compared with LY3298176 ([2]; db/db mice, long-term repeated administration): not inferior to the positive control LY3298176 | blood glucose reducing effect after administration compared with LY3298176 ([2]; db/db mice, same dose 10 nmol/kg): slightly better than the positive control LY3298176 | blood glucose level after long-term administration ([2]; type II diabetes model db/db mice): significantly improve the blood glucose level | EC50 (GLP-1R): 0.104 nM | Blood glucose level (mM) 15 min [1]: 14.0 ± 4.3 mM | Blood glucose level (mM) 30 min [1]: 10.0 ± 3.1 mM | Blood glucose level (mM) 60 min [1]: 8.4 ± 2.5 mM | Blood glucose level (mM) 90 min [1]: 7.1 ± 2.3 mM | Blood glucose level (mM) 0 min [1]: 4.6 ± 1.0 mM | AUC0-90 min [1]: 827.3±234.6^a | EC50 (GIPR): 0.0043 nM

CC[C@H](C)[C@H](NC(=O)[C@H](Cc1ccccc1)NC(=O)[C@H](C)NC(=O)[C@H](CCCNC(=N)N)NC(=O)[C@H](CCC(N)=O)NC(=O)[C@H](C)NC(=O)[C@H](CCCCNC(=O)COCCOCCNC(=O)CC[C@H](NC(=O)CCCCCCCCCCCCCCCCC(=O)O)C(=O)O)NC(=O)[C@H](CCC(=O)O)NC(=O)[C@H](CC(=O)O)NC(=O)[C@H](CC(C)C)NC(=O)[C@H](CC(C)C)NC(=O)[C@@H](NC(=O)[C@H](CO)NC(=O)[C@H](Cc1ccc(O)cc1)NC(=O)[C@H](CC(=O)O)NC(=O)[C@H](CO)NC(=O)[C@@H](NC(=O)[C@](C)(Cc1ccccc1F)NC(=O)[C@@H](NC(=O)CNC(=O)[C@H](Cc1c[nH]cn1)NC(=O)C(C)(C)NC(=O)[C@@H](N)Cc1ccc(O)cc1)[C@@H](C)O)[C@@H](C)O)[C@@H](C)CC)C(=O)N[C@@H](CCC(=O)O)C(=O)N[C@@H](Cc1ccc(O)cc1)C(=O)N[C@@H](CC(C)C)C(=O)N[C@@H](CC(C)C)C(=O)N[C@@H](C)C(=O)NCC(=O)NCC(=O)N1CCC[C@H]1C(=O)N[C@@H](CO)C(=O)N[C@@H](CO)C(=O)NCC(=O)N[C@@H](C)C(=O)N1CCC[C@H]1C(=O)N1CCC[C@H]1C(=O)N1CCC[C@H]1C(=O)N[C@@H](CO)C(=O)O [HEC-PT75]
EC50 (GCGR): 0.0672 nM | EC50 (GLP-1R): 0.108 nM | Blood glucose level (mM) 15 min [1]: 11.1 ± 3.1 mM | Blood glucose level (mM) 30 min [1]: 8.9 ± 3.1 mM | Blood glucose level (mM) 60 min [1]: 7.4 ± 2.0 mM | Blood glucose level (mM) 90 min [1]: 5.6 ± 0.7 mM | Blood glucose level (mM) 0 min [1]: 4.0 ± 0.4 mM | improvement of glucose tolerance compared with LY3298176 ([1]; 24 hours after a single administration, 3 nmol/kg): more effective in improving glucose tolerance than the positive control LY3298176 | AUC0-90 min [1]: 682.0±166.7^a | EC50 (GIPR): 0.0377 nM
